# Like-named read-outs stand apart in the source and are kept apart here.
# Assays:
# [1] = test system: guppies; assay: Toxicity test on guppies; format: in vivo, guppy
# Text: Cunaniol or its derivatives may also be used as an effective toxin. When tested on guppies at approximately 10^-6 M the poison gives rise to restless movement after two minutes, wild swimming, convulsion and coma with the body bent laterally after ten minutes.
# [2] = test system: isolated rat phrenic nerve-diaphragm preparation; assay: Isolated rat phrenic nerve-diaphragm preparation
# Text: This is not reversed by neostigmine, i.e. is not curare-like.
# [3] = test system: rat heart; assay: Rat heart contractability and heart block
# [4] = test system: frog spinal cord preparation; assay: Frog spinal cord preparation
# Text: (§1) Cunaniol is about ten times as active and ten times as rapid as the classic central nervous system stimulant picrotoxin. Convulsant action can be antagonised by prior exposure to anticonvulsants such as phenobarbitone or troxidone.
# [5] = test system: frog and rat isolated striated muscle preparations; assay: Frog and rat isolated striated muscle preparations, nerve stimulation
# Text: Experiments have been carried out on frog and rat isolated striated muscle preparations.
# [6] = test system: intact anaesthetised rats; assay: Pressor response in intact anaesthetised rats; format: in vivo, rat; conditions: intravenous injection
# Protocol: (§2) In intact anaesthetised rats, a sustained pressor response is produced by cunaniol administered by intravenous injection in doses of 0.5 mg or greater. In pithed rats the response to cunaniol was abolished, indicating a central action of the polyacetylene.
# [7] = test system: frogs; assay: Administration to frogs by injection or by topical application: convulsions and death; format: in vivo, frog
# Text: as §1
# [8] = test system: isolated rabbit heart; assay: Isolated rabbit heart perfusion
# [9] = test system: pithed rats; assay: Pressor response in pithed rats; format: in vivo, rat; conditions: indicating a central action
# Protocol: as §2
# [10] = test system: central nervous system; assay: Central nervous system stimulant / convulsant activity compared with picrotoxin; antagonism by anticonvulsants; format: in vivo; conditions: for antagonism of cunaniol convulsant action: prior exposure to anticonvulsant
# Text: as §1
# [11] = Solubility / lipophilicity; format: physicochemical
# [12] = test system: viviparous fish; assay: Release of fry from viviparous fish; format: in vivo; conditions: due to effects on neuromuscular function
# [13] = for stability to air and light: exposure to light and air / oxygen
# [14] = Convulsant action and lethality in rats, intraperitoneal injection; format: in vivo, rat; conditions: rat, in vivo, ip, read-out: non-convulsant dose
# Protocol: (§3) Rats are also sensitive to the convulsant actions of cunaniol, a convulsant dose being 5 mg/kg. A dosage of 2.24 mg/kg is a non-convulsant dose while 10 mg/kg causes death (intraperitoneal injection).
# [15] = test system: Rats; assay: as above; format: in vivo, rat
# Protocol: as §3
# [16] = test system: pentobarbitone sodium induced sleep; assay: Pentobarbitone sodium induced sleep in rats (sleeping time), analeptic action; format: in vivo, rat; conditions: for ED50: after intraperitoneal 40 mg/kg pentobarbitone sodium, read-out: dose reducing "sleeping time" by 50%
# Protocol: The effects of cunaniol on pentobarbitone sodium induced sleep in rats were compared with those of the analeptic bemegride. 5 mg/kg of cunaniol administered by intraperitoneal injection antagonises pentobarbitone while 7.4 mg/kg reduces "sleeping time" by 50% after intraperitoneal administration of a concentration of 40 mg/kg pentobarbitone sodium.
# [17] = test system: cardiovascular system; assay: Action on the cardiovascular system; conditions: in vivo
# [18] = test system: GABAergic system; assay: GABA (gamma-amino-butyric acid) antagonism
# [19] = test system: mice; assay: Convulsant action in mice, intraperitoneal or oral; format: in vivo, mouse; conditions: for convulsant type in mice: intraperitoneally or orally; for similarity of convulsant actions to cunaniol: mice
# [20] = Craig Distribution studies (Kp value); format: physicochemical; conditions: obtained previously from Craig Distribution studies
# Protocol: Crude syrup (190 g.) from the cold petrol extraction was dissolved in upper phase solvent (150 mls.). A steady state distribution program was used, based on a Kp value for cunaniol acetate of 0.54 obtained previously from Craig Distribution studies. The mixture was then loaded into the SSDM dosage pump.
# [21] = Potency of cis-cunaniol relative to the trans form; conditions: cis form versus trans form; only about 1/60th
compound,measurement,setting,value
CC#CC#CC#CC=CC1OCCCC1O (stereo not shown) [cunaniol],edibility of treated fish,[1]; almost immediately after treatment,edible almost immediately
same,subsequent symptoms after recovery,[1]; guppies removed into fresh water,no subsequent symptoms
same,time to complete recovery,[1]; guppies removed into fresh water after ten minutes at approximately 10^-6 M,approximately twenty
same,time to restless movement,"[1]; guppies, approximately 10^-6 M",two
same,"time to wild swimming, convulsion and coma with the body bent laterally","[1]; guppies, approximately 10^-6 M",ten
same,minimal effective concentration,"[2]; Rattus norvegicus, direct action on the muscle, dose dependent, concentrations as low as, read-out: lowest concentration giving marked potentiation",12.5 µg/mL
same,concentration giving complete neuromuscular block,[2]; higher concentrations,100 µg/mL
same,reversal of block by washing,[2]; washing,readily reversed by washing
same,time for removal of potentiation by washing,"[2]; washing, more slowly removed than block",60 min
same,"effect on rat heart, larger doses",[3]; larger doses,complete heart block
same,reversibility of heart block,"[3]; on washing out, no apparent impairment of function",rapidly reversed on washing out
same,"effect on rat heart, small doses",[3]; small doses,reduce contractability of the rat heart
same,effects on frog spinal cord preparation,[4],resemble those of nicotine
same,response to nerve stimulation,[5],increased response to nerve stimulation
same,neuromuscular transmission at higher concentrations,[5]; higher concentrations,failure in neuromuscular transmission
same,dose producing a sustained pressor response,[6],≥ 0.5 mg
same,effect in frogs,[7]; by injection or by topical application,clonic convulsions and death
same,LD50,"[7]; frogs, intraperitoneal injection",12.8 mg/kg
same,effect on isolated rabbit heart,"[8]; perfusion, 100 μg/ml, preliminary experiments",negative inotropic effect culminating in complete but reversible cardiac arrest in diastole
same,pressor response in pithed rats,[9],abolished
same,rapidity relative to picrotoxin,[10]; ten times as rapid as picrotoxin,about ten
same,lipophilicity,[11]; due to the polyacetylene chain,lipophilic
same,release of fry from viviparous fish,[12],highly effective
same,stability to air and light,[13],readily decomposed to a brown material
same,stability to air and light,[13]; listed as trans-cunaniol,unstable to oxygen and light
same,storage stability,"[13]; solid under n-hexane, in the dark, in a refrigerator",could be kept for years
same,NOAEL,[14],2.24 mg/kg
same,convulsant dose,[15],5 mg/kg
same,dose causing death,[15],10 mg/kg
same,minimal effective dose,"[16]; Rattus norvegicus, ip, rats, intraperitoneal injection, read-out: dose antagonising pentobarbitone",5 mg/kg
same,ED50,"[16]; Rattus norvegicus, ip, rats",7.4 mg/kg
same,selectivity as analeptic,[16]; compared with bemegride and leptazol,more selective anti-phenobarbitone action
same,analeptic potency compared with bemegride,"[16]; rats, 50% reduction of ""sleeping time""",more potent than bemegride
same,effect on the cardiovascular system,[17],transient depressant effect on the heart and a sustained pressor response
same,GABA antagonist activity,[18],GABA (gamma-amino-butyric acid) antagonist
same,potency among the clonic convulsants,"[19]; both routes of administration, compared with leptazol, picrotoxin",most potent of the clonic convulsants
same,speed of onset of effects,[19]; compared with the other compounds,usually occurred more rapidly than with the other compounds
same,convulsant type in mice,[19],clonic convulsant
CC#CC#CC#C/C=C/C1OCCCC1O (stereo not shown),solubility in water,[11]; water,low solubility in water
C=C(C)[C@H]1Cc2c(ccc3c2O[C@@H]2COc4cc(OC)c(OC)cc4[C@@H]2C3=O)O1 [rotenone],reversibility in isolated rabbit heart,[8]; similar experiment with rotenone,did not exhibit the reversibility
same,toxicity to mice,"[19]; metabolic toxin, comparison",highly toxic to mice
same,similarity of convulsant actions to cunaniol,[19],qualitatively different from the convulsants
"CN(C)C(=O)Oc1cccc([N+](C)(C)C)c1 [neostigmine, reference compound]",reversal of neuromuscular block by neostigmine,"[2]; block by cunaniol, i.e. not curare-like",not reversed
CC#CC#CC#C/C=C/C1OCCCC1OC1C=C[C@H](OC(C)=O)[C@@H](COC(C)=O)O1 (stereo partly shown) [glycoside],liberation of cunaniol on hydrolysis,[13]; hydrolysis of the glycoside link,readily liberated on hydrolysis
picrotoxin,similarity of convulsant actions to cunaniol,[19],less closely
O=C1C[C@@H]2OCC=C3CN4CC[C@]56c7ccccc7N1[C@H]5[C@H]2[C@H]3C[C@H]46 [strychnine],convulsant type in mice,[19],tonic convulsions
same,similarity of convulsant actions to cunaniol,[19],differed
"CN1C(=O)OC(C)(C)C1=O [troxidone, reference compound]",antagonism of cunaniol convulsant action,[10],antagonised
"CCC1(c2ccccc2)C(=O)NC(=O)NC1=O [phenobarbitone, reference compound]",antagonism of responses of guppies to cunaniol,[1]; in vivo,readily antagonises all responses
same,antagonism of cunaniol convulsant action,[10],antagonised
CC#CC#CC#CC=CC1OCCCC1OC(C)=O (stereo not shown) [cunaniol acetate],hydrolysis,[13]; with sodium bicarbonate,easily hydrolysed
same,Kp value,[20],0.54
CC#CC#CC#C/C=C\C1OCCCC1O (stereo not drawn) [cis-cunaniol],potency relative to trans form,[21],about 1/60
"CCC1(C)CC(=O)NC(=O)C1 [bemegride, reference compound]",ED50,"[16]; Rattus norvegicus, ip, rats",45.7 mg/kg
C1CCc2nnnn2CC1 [leptazol],similarity of convulsant actions to cunaniol,[19],mimicked closely
